Source: PubChem BioAssay (NCI)
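Here, GI50 denotes the concentration required for 50% inhibition of growth. TGI denotes the concentration required for complete inhibition of growth.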

How the values were obtained:
Test in all cases: NCI anticancer screen, dose series, 384-well format; in the data active = GI50 below about 0.43 µM; inactive = the rest
786-0 renal = system: 786-0 renal
A498 renal = system: A498 renal
A549 NSCLC = system: A549 NSCLC
BT-549 breast = system: BT-549 breast
CAKI-1 renal = system: CAKI-1 renal
COLO 205 colon = system: COLO 205 colon
DU-145 prostate = system: DU-145 prostate
EKVX NSCLC = system: EKVX NSCLC
HCC-2998 colon = system: HCC-2998 colon
HCT-116 colon = system: HCT-116 colon
HCT-15 colon = system: HCT-15 colon
HL-60(TB) leukemia = system: HL-60(TB) leukemia
HOP-92 NSCLC = system: HOP-92 NSCLC
HS 578T breast = system: HS 578T breast
HT29 colon = system: HT29 colon
K-562 leukemia = system: K-562 leukemia
KM12 colon = system: KM12 colon
LOX IMVI melanoma = system: LOX IMVI melanoma
M14 melanoma = system: M14 melanoma
MALME-3M melanoma = system: MALME-3M melanoma
MCF7 breast = system: MCF7 breast
MDA-MB-435 melanoma = system: MDA-MB-435 melanoma
MOLT-4 leukemia = system: MOLT-4 leukemia
NCI-H23 lung = system: NCI-H23 lung
NCI-H322M lung = system: NCI-H322M lung
NCI-H460 NSCLC = system: NCI-H460 NSCLC
NCI-H522 lung = system: NCI-H522 lung
NCI/ADR-RES ovarian = system: NCI/ADR-RES ovarian
OVCAR-4 ovarian = system: OVCAR-4 ovarian
OVCAR-5 ovarian = system: OVCAR-5 ovarian
PC-3 prostate = system: PC-3 prostate
RPMI-8226 leukemia = system: RPMI-8226 leukemia
RXF 393 renal = system: RXF 393 renal
SF-295 CNS = system: SF-295 CNS
SF-539 CNS = system: SF-539 CNS
SK-MEL-28 melanoma = system: SK-MEL-28 melanoma
SK-MEL-5 melanoma = system: SK-MEL-5 melanoma
SK-OV-3 ovarian = system: SK-OV-3 ovarian
SN12C renal = system: SN12C renal
SNB-19 CNS = system: SNB-19 CNS
SR leukemia = system: SR leukemia
T-47D breast = system: T-47D breast
TK-10 renal = system: TK-10 renal
U251 glioblastoma = system: U251 glioblastoma
UACC-257 melanoma = system: UACC-257 melanoma
UACC-62 melanoma = system: UACC-62 melanoma
UO-31 renal = system: UO-31 renal

CNCc1ccc(-c2[nH]c3cc(F)cc4c3c2CCNC4=O)cc1
26.4 µM: TGI (UACC-257 melanoma)
38 µM: TGI (PC-3 prostate)
32.4 µM: TGI (NCI-H322M lung)
45.3 µM: TGI (SK-OV-3 ovarian)
25 µM: TGI (UACC-62 melanoma)
29.3 µM: TGI (A498 renal) | TGI (NCI-H522 lung)
19.6 µM: TGI (NCI-H460 NSCLC)
22.4 µM: TGI (HS 578T breast) | TGI (SF-295 CNS)
18.7 µM: TGI (MCF7 breast)
27.4 µM: TGI (DU-145 prostate)
20.1 µM: TGI (K-562 leukemia)
28.5 µM: TGI (UO-31 renal)
28.8 µM: TGI (SK-MEL-28 melanoma)
31 µM: TGI (SN12C renal)
32.5 µM: TGI (U251 glioblastoma)
24.2 µM: TGI (BT-549 breast)
30.7 µM: TGI (MALME-3M melanoma)
21.6 µM: TGI (RPMI-8226 leukemia)
24.8 µM: TGI (NCI-H23 lung)
23.4 µM: TGI (HT29 colon)
21.3 µM: TGI (786-0 renal)
29.5 µM: TGI (A549 NSCLC)
36.9 µM: TGI (T-47D breast)
38.2 µM: TGI (OVCAR-4 ovarian)
23.1 µM: TGI (COLO 205 colon)
> 92.6 µM: TGI (NCI/ADR-RES ovarian)
27.9 µM: TGI (HOP-92 NSCLC)
30.9 µM: TGI (EKVX NSCLC)
38.9 µM: TGI (OVCAR-5 ovarian)
26 µM: TGI (LOX IMVI melanoma)
30.2 µM: TGI (KM12 colon)
28 µM: TGI (M14 melanoma)
> 48.4 µM: TGI (SNB-19 CNS)
31.1 µM: TGI (HCT-15 colon)
34.2 µM: TGI (MDA-MB-435 melanoma)
19.4 µM: TGI (HCT-116 colon)
5.64 µM: TGI (MOLT-4 leukemia)
3.93 µM: TGI (SR leukemia)
12.1 µM: TGI (SK-MEL-5 melanoma)
46.5 µM: TGI (TK-10 renal)
19.1 µM: TGI (HL-60(TB) leukemia)
25.1 µM: TGI (SF-539 CNS)
23.8 µM: TGI (HCC-2998 colon) | TGI (RXF 393 renal)
19.8 µM: TGI (CAKI-1 renal)
inactive: GI50 ([…]-0 renal) 7.97 µM | GI50 (A498 renal) 15.7 µM | GI50 (A549 NSCLC) 14.7 µM | GI50 (BT-549 breast) 11.8 µM | GI50 (CAKI-1 renal) 7.56 µM | GI50 (COLO 205 colon) 9.97 µM | GI50 (DU-145 prostate) 13.9 µM | GI50 (EKVX NSCLC) 16.1 µM | GI50 (HCC-2998 colon) 11.3 µM | GI50 (HCT-116 colon) 6.6 µM | GI50 (HCT-15 colon) 15.1 µM | GI50 (HL-60(TB) leukemia) 8.28 µM | GI50 (HOP-92 NSCLC) 12.9 µM | GI50 (HS 578T breast) 10.4 µM | GI50 (HT29 colon) 10 µM | GI50 (K-562 leukemia) 7.92 µM | GI50 (KM12 colon) 15.7 µM | GI50 (LOX IMVI melanoma) 13 µM | GI50 (M14 melanoma) 14.7 µM | GI50 (MALME-3M melanoma) 16.9 µM | GI50 (MCF7 breast) 6.36 µM | GI50 (MDA-MB-435 melanoma) 19 µM | GI50 (MOLT-4 leukemia) 2.17 µM | GI50 (NCI-H23 lung) 12.1 µM | GI50 (NCI-H322M lung) 17.2 µM | GI50 (NCI-H460 NSCLC) 6.31 µM | GI50 (NCI-H522 lung) 15.6 µM | GI50 (NCI/ADR-RES ovarian) 38.7 µM | GI50 (OVCAR-4 ovarian) 21 µM | GI50 (OVCAR-5 ovarian) 15.8 µM | GI50 (PC-3 prostate) 16.1 µM | GI50 (RPMI-8226 leukemia) 8.37 µM | GI50 (RXF 393 renal) 10.6 µM | GI50 (SF-295 CNS) 8.3 µM | GI50 (SF-539 CNS) 12.4 µM | GI50 (SK-MEL-28 melanoma) 15.2 µM | GI50 (SK-MEL-5 melanoma) 6.05 µM | GI50 (SK-OV-3 ovarian) 20.6 µM | GI50 (SN12C renal) 14.9 µM | GI50 (SNB-19 CNS) 19 µM | GI50 (SR leukemia) 1.54 µM | GI50 (T-47D breast) 16.9 µM | GI50 (TK-10 renal) 18.8 µM | GI50 (U251 glioblastoma) 14.4 µM | GI50 (UACC-257 melanoma) 12.8 µM | GI50 (UACC-62 melanoma) 12.4 µM | GI50 (UO-31 renal) 12.1 µM

N#CCC1(n2cc(-c3ncnc4[nH]ccc34)cn2)CN(C2CCN(C(=O)c3ccnc(C(F)(F)F)c3F)CC2)C1
65.7 µM: TGI (RPMI-8226 leukemia)
> 70.7 µM: TGI (SK-MEL-5 melanoma)
> 100 µM: TGI (786-0 renal) | TGI (A498 renal) | TGI (A549 NSCLC) | TGI (BT-549 breast) | TGI (CAKI-1 renal) | TGI (DU-145 prostate) | TGI (EKVX NSCLC) | TGI (HCC-2998 colon) | TGI (HCT-116 colon) | TGI (HCT-15 colon) | TGI (HOP-92 NSCLC) | TGI (HT29 colon) | TGI (K-562 leukemia) | TGI (KM12 colon) | TGI (LOX IMVI melanoma) | TGI (M14 melanoma) | TGI (MALME-3M melanoma) | TGI (MCF7 breast) | TGI (MDA-MB-435 melanoma) | TGI (NCI-H23 lung) | TGI (NCI-H322M lung) | TGI (NCI-H460 NSCLC) | TGI (NCI/ADR-RES ovarian) | TGI (OVCAR-4 ovarian) | TGI (OVCAR-5 ovarian) | TGI (PC-3 prostate) | TGI (RXF 393 renal) | TGI (SF-295 CNS) | TGI (SF-539 CNS) | TGI (SK-MEL-28 melanoma) | TGI (SK-OV-3 ovarian) | TGI (SN12C renal) | TGI (SNB-19 CNS) | TGI (T-47D breast) | TGI (TK-10 renal) | TGI (U251 glioblastoma) | TGI (UACC-257 melanoma) | TGI (UACC-62 melanoma) | TGI (UO-31 renal)
92.9 µM: TGI (HS 578T breast)
39.4 µM: TGI (SR leukemia)
39.2 µM: TGI (NCI-H522 lung)
35.4 µM: TGI (MOLT-4 leukemia)
70.6 µM: TGI (COLO 205 colon)
97.7 µM: TGI (HL-60(TB) leukemia)
inactive: GI50 ([…]-0 renal) > 96.4 µM | GI50 (A498 renal) > 100 µM | GI50 (A549 NSCLC) > 61.3 µM | GI50 (BT-549 breast) 50.4 µM | GI50 (CAKI-1 renal) > 84.9 µM | GI50 (COLO 205 colon) 28.5 µM | GI50 (DU-145 prostate) 97.1 µM | GI50 (EKVX NSCLC) > 70 µM | GI50 (HCC-2998 colon) > 100 µM | GI50 (HCT-116 colon) > 79.5 µM | GI50 (HCT-15 colon) > 78.9 µM | GI50 (HL-60(TB) leukemia) > 62 µM | GI50 (HOP-92 NSCLC) 40.1 µM | GI50 (HS 578T breast) 30.9 µM | GI50 (HT29 colon) > 73 µM | GI50 (K-562 leukemia) 34.5 µM | GI50 (KM12 colon) 42.3 µM | GI50 (LOX IMVI melanoma) > 100 µM | GI50 (M14 melanoma) > 88.6 µM | GI50 (MALME-3M melanoma) > 75.4 µM | GI50 (MCF7 breast) > 71.8 µM | GI50 (MDA-MB-435 melanoma) > 100 µM | GI50 (MOLT-4 leukemia) 16.8 µM | GI50 (NCI-H23 lung) 31.7 µM | GI50 (NCI-H322M lung) > 100 µM | GI50 (NCI-H460 NSCLC) 49.6 µM | GI50 (NCI-H522 lung) 18.4 µM | GI50 (NCI/ADR-RES ovarian) > 100 µM | GI50 (OVCAR-4 ovarian) > 100 µM | GI50 (OVCAR-5 ovarian) > 100 µM | GI50 (PC-3 prostate) > 100 µM | GI50 (RPMI-8226 leukemia) 22.2 µM | GI50 (RXF 393 renal) 58.3 µM | GI50 (SF-295 CNS) 72.9 µM | GI50 (SF-539 CNS) > 76.2 µM | GI50 (SK-MEL-28 melanoma) > 100 µM | GI50 (SK-MEL-5 melanoma) > 41.9 µM | GI50 (SK-OV-3 ovarian) > 73.7 µM | GI50 (SN12C renal) 83.1 µM | GI50 (SNB-19 CNS) > 100 µM | GI50 (SR leukemia) 23.9 µM | GI50 (T-47D breast) 49.6 µM | GI50 (TK-10 renal) > 100 µM | GI50 (U251 glioblastoma) > 100 µM | GI50 (UACC-257 melanoma) > 81.8 µM | GI50 (UACC-62 melanoma) > 61.3 µM | GI50 (UO-31 renal) 72.5 µM
